Data set [1] addresses T1, P-gp (Mus musculus, UniProt P21447).
T1 construct: inferred from the Ni-NTA purification; made in house; host or cells: Pichia pastoris
Kind of data set: Stimulation of basal ATPase activity of purified P-gp. Type of data set: biochemical. The settings on record: 310 K. On the procedure: The ATPase activity of P-gp was measured at 310 K using the ATP-regenerating system described by Vogel & Steinhart (1976[▶]) as modified by Urbatsch et al. (1995[▶]). Briefly, 1 µg P-gp was added to 100 µl 50 mM Tris–HCl pH 7.5 buffer containing 10 mM ATP, 12 mM MgCl2, 6 mM phosphoenolpyruvate, 1 mM NADH, 10 units of lactate dehydrogenase, 10 units of pyruvate kinase and test compounds over a range of concentrations. ATP hydrolysis was determined by the decrease in NADH absorbance at OD340 using a Filtermax F5 Multiplate Spectrophotometer. The ATPase activity was calculated using the equation ΔOD/(∊ × [protein] × time), where ΔOD is the change in absorbance and ∊ is the extinction coefficient of NADH. The concentration of purified P-gp was estimated by comparing the SDS–PAGE intensity of Coomassie-stained protein bands with known amounts of BSA. EC50 values were calculated using GraphPad Prism (GraphPad Software, San Diego, California, USA) using nonlinear regression (curve fit) from the entire concentration range.
Gene-optimized mouse P-gp (ABCB1a; GenBank JF834158) was expressed in Pichia pastoris in 10 l cultures in a BioFlo 415 bioreactor (New Brunswick Scientific) and was induced by the slow addition of methanol (3.6 ml per hour per litre of culture volume) overnight as described previously (Aller et al., 2009[▶]; Bai et al., 2011[▶]). […]

In data set [2] the target is T2, P-gp (Cricetulus griseus, UniProt P21448).
T2 construct: endogenous in cells; host or cells: Chinese hamster ovary CR1R12 cells (colchicine-selected; parental AUXB1)
Kind of data set: Calcein-AM transport assay in P-gp-overexpressing CR1R12 cells. It counts as cell-based, Chinese hamster. The settings on record: calcein-AM 0.25 µM, room temperature, read-out: IC50 inhibition of calcein-AM export. On the procedure:
It has commonly been used in fluorescence-based transport assays for P-gp in whole-cell systems (Al-Shawi & Senior, 1993[▶]). Chinese hamster ovary CR1R12 cells were cultured in the presence of 5 µg ml^−1 colchicine to maintain P-gp overexpression. In general, ∼5 × 10^5 CR1R12 cells per well were pretreated with test compounds in serially increasing concentrations at room temperature for 15 min; calcein-AM (0.25 µM) was then added and incubated for an additional 15 min at room temperature while monitoring the fluorescence intensity (excitation at 485 nm, emission at 535 nm). 100% was the maximum fluorescence achieved by full inhibition of P-gp in CR1R12 cells. The means and standard deviations were obtained from quadruplet experiments.

The subject of data set [3] is CR1R12 cells. Kind of data set: Sensitization assay: growth of CR1R12 cells with colchicine (sulforhodamine B). Type of data set: cell-based, Chinese hamster. On the procedure:
(§1) CR1R12 cells were grown in the presence of increasing concentrations of colchicine for 3 d at given concentrations of test compounds. Cell densities were determined using the sulforhodamine B colorimetric assay (Vichai & Kirtikara, 2006[▶]). 100% is defined as the growth in the absence of colchicine. Parental AUXB1 cells were included as controls. […]
(§2) Figure S4 Sensitization of CR1R12 cells to the anti-cancer drug colchicine by homotrimeric cyclopeptides. Relative to parental control AUXB1 cells, P-gp-overexpressing CR1R12 cells are ~200 times more resistant to the anticancer drug colchicine (gray lines in all panes). Their 50% growth […]
(§3) Presence of (a) QZ-Ala, green, (b)
(§4) QZ-Val, blue, and (d) QZ-Phe, red, in the growth media sensitized the CR1R12 cells to colchicine in a concentration-dependent manner with full reversal of P-gp mediated multidrug resistance seen at 2 […]
(§5) increasing concentrations of (c) QZ-Leu, yellow, also sensitized CR1R12 cells to colchicine, where […]
(§6) higher concentrations. Shown are representative data from three independent experiments. The concentrations are plotted in log scale.

A short description of data set [4]: Solubility remark (Fig. S3 legend). It counts as physicochemical. The settings on record: at high concentrations.
For data set [5], the system named is P-gp-over-expressing CR1R12, and parental control AuxB1, cells. Kind of data set: Cytotoxicity of the cyclopeptides to CR1R12 and parental AuxB1 cells (Fig. S3). It counts as cell-based, Chinese hamster. On the procedure: Figure S1 NMR spectra of QZ-Ala, QZ-Leu and QZ-Phe. 13C (top) and 1H (bottom) spectra are […]
Figure S2 Structure based alignment. Two views of P-gp depicting Cα position shifts between the new (P-gp native at 3.4 Å, reported here) and previously published model (pdb code: 4KSB). Changes are depicted by color with red indicating the largest shift in Cα position (8.35 Å). Alignments and pairwise Cα RMSD calculations were calculated using the python module ‘ColorByRMSD’ within the PyMOL Molecular Graphics System (Schrödinger, LLC)
Figure S3 Cytotoxicity of the homotrimeric cyclopeptide compounds to P -gp-over-expressing CR1R12, and parental control AuxB1, cells using Calcein-AM transport assay. P-gp mediates mild […]
of this compound at high concentrations. The mean and SD of quadruplet experiments are shown; data were fit using the Hill equation. QZ-Ala, QZ-Val, QZ-Leu and QZ-Phe are drawn in green, blue, yellow and red curves, respectively. The concentrations are plotted in log scale.
as §2
Presence of (a) QZ-Ala, green, (b) […]

Data set [6] has as its system AUXB1 cells. Kind of data set: Growth inhibition of parental control AUXB1 cells by colchicine. Type of data set: cell-based, Chinese hamster. The settings on record: Cricetulus griseus, read-out: 50% growth inhibition (GI50). On the procedure: as §1, §2, §3, §4, §5, §6

T2 sequence (P21448 whole entry): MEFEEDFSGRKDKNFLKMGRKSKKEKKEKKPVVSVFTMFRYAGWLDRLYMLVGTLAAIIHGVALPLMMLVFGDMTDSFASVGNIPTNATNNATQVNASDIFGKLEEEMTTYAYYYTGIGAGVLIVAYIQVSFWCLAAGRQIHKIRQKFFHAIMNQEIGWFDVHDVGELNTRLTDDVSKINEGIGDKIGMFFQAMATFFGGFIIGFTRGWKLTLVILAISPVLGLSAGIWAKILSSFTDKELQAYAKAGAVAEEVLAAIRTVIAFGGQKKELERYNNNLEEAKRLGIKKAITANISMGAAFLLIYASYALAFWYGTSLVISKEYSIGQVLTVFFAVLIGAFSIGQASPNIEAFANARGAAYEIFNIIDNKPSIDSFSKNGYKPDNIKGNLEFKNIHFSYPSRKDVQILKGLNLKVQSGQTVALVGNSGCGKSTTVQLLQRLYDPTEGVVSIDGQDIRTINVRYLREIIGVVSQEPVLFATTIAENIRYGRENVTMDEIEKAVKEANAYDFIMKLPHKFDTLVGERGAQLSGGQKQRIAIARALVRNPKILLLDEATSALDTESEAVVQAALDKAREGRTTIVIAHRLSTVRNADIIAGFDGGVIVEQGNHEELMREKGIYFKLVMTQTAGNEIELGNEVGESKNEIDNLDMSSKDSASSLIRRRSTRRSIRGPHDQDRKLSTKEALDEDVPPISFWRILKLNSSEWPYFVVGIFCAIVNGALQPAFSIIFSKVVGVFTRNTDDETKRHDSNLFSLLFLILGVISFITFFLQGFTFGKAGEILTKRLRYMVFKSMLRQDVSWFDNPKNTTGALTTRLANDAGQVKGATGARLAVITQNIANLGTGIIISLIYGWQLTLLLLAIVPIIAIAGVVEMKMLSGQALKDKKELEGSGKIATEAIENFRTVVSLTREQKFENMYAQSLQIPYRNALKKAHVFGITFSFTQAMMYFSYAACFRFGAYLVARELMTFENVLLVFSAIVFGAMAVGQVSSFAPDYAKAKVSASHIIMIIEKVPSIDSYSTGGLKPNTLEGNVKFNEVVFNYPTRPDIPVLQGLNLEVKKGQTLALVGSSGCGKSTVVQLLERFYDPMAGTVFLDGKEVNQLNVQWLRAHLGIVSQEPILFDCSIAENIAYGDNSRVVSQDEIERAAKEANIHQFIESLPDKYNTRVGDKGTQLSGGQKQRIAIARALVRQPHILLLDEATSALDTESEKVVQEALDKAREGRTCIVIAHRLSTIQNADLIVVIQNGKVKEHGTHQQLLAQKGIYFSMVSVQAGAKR
T1 sequence (P21447 whole entry): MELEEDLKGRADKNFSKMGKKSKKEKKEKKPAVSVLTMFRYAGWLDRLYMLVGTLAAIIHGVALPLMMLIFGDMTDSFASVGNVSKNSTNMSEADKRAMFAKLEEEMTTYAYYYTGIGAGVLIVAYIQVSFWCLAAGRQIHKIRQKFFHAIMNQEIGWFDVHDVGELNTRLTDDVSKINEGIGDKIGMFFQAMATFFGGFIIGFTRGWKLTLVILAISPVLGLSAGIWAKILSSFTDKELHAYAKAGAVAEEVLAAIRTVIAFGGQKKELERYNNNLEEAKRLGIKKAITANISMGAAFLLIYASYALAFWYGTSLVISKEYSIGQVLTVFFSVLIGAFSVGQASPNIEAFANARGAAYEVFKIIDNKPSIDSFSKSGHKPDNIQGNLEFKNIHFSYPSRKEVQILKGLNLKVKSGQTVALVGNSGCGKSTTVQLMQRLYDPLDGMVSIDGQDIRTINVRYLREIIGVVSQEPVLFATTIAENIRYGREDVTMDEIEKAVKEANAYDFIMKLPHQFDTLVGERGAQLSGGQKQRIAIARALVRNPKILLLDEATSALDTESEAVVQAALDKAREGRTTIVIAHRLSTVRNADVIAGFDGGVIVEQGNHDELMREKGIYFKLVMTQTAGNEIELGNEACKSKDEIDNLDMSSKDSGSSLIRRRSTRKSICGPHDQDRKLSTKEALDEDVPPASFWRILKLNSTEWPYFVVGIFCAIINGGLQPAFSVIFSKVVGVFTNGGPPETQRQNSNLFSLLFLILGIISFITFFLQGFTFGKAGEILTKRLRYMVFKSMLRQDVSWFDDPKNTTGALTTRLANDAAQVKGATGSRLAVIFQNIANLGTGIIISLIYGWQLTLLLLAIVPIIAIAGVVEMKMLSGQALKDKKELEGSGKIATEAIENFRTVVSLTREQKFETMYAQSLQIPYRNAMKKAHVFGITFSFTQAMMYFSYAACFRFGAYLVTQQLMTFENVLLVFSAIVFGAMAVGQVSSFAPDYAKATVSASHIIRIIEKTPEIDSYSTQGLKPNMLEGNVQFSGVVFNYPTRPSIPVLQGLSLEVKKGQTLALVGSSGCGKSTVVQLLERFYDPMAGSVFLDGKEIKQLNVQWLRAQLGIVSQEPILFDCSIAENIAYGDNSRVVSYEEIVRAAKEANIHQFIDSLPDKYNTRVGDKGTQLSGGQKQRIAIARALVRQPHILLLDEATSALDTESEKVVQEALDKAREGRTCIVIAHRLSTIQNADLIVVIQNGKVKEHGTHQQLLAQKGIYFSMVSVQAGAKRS

By EC50 is commonly meant the concentration that produces a half-maximal response. Read a low EC50 as greater potency. The IC50 is the concentration at which inhibition is half-maximal. In data set [1], `C[C@@H]1NC(=O)c2c[se]c(n2)[C@H](C)NC(=O)c2c[se]c(n2)[C@H](C)NC(=O)c2c[se]c1n2` [QZ-Ala] displayed a half-maximal effective concentration (EC50) of 920 nM. The IC50 in data set [2] is 140 nM.
Regarding `CC(C)C[C@@H]1NC(=O)c2c[se]c(n2)[C@H](CC(C)C)NC(=O)c2c[se]c(n2)[C@H](CC(C)C)NC(=O)c2c[se]c1n2` [QZ-Leu], the “Cytotoxicity (in words)” value in data set [3] (CR1R12 cells, higher concentrations) is “became cytotoxic”. For the same molecule, the half-inhibitory concentration (IC50) in data set [2] is 5400 nM.
In the case of `O=C1N[C@@H](Cc2ccccc2)c2nc(c[se]2)C(=O)N[C@@H](Cc2ccccc2)c2nc(c[se]2)C(=O)N[C@@H](Cc2ccccc2)c2nc1c[se]2` [QZ-Phe], the “Solubility (in words)” value in data set [4] is on record as “limited solubility”. The half-maximal inhibitory concentration (IC50) in data set [2] is 24000 nM. In addition, the “Full growth inhibition (in words)” value in data set [5] is “not observed”.
Regarding `CC(C)[C@@H]1NC(=O)c2c[se]c(n2)[C@H](C(C)C)NC(=O)c2c[se]c(n2)[C@H](C(C)C)NC(=O)c2c[se]c1n2` [QZ-Val], the IC50 in data set [2] was 1700 nM.
Broadly, the GI50 is the concentration at which growth is held to half of that of the control. In the case of `COc1cc2c(c(OC)c1OC)-c1ccc(OC)c(=O)cc1[C@@H](NC(C)=O)CC2` [colchicine], in data set [3] (CR1R12 vs parental AUXB1), the “Resistance of CR1R12 cells relative to AUXB1 cells” value is listed as ~ 200 times. In addition, the GI50 in data set [3] (Cricetulus griseus, CR1R12 cells, no cyclopeptide, read-out: 50% growth inhibition (GI50)) is 27000 nM; in data set [6], 140 nM.

Source of the values: PMC4356375, “Snapshots of ligand entry, malleable binding and induced helical movement in P-glycoprotein” (Acta Crystallographica Section D: Biological Crystallography, 2015).
